From publication PMC7470104, “Discovery of 3,6-disubstituted pyridazines as a novel class of anticancer agents targeting cyclin-dependent kinase 2: synthesis, biological evaluation and in silico insights” (Journal of Enzyme Inhibition and Medicinal Chemistry, 2020)
Like-named read-outs stand apart in the source and are kept apart here. Values belong to the compound of their own block, whether it stands above or below them.

Experiments:
[1] = system: T-47D cells; assay: SRB anti-proliferative assay, T-47D; assay type: cell-based; conditions: Homo sapiens, T47D, 48 h, read-out: IC50 T-47D
From the text: (§1) MDA-MB-231 cell line is classified as a triple-negative/basal-like cell line, which is hormone (estrogen and progesterone)-receptor negative and HER2 negative, whereas T-47D is considered as hormone-receptor positive and HER2 negative breast cancer cell line.
(§2) 2. Anti-proliferative activities
(§3) The three examined human cancer cell lines; T-47D (breast cancer), MDA-MB-231 (breast carcinoma) and SKOV-3 (ovarian cancer), as well as the non-tumorigenic human breast cell line (MCF-10A) have been obtained from American Type Culture Collection (ATCC). The cells were maintained in Dulbecco's modified Eagle's medium (DMEM) supplemented with 10% heat inactivated fetal calf serum (GIBCO), penicillin (100 U/ml) and streptomycin (100 µg/ml) at 37 °C in humidified atmosphere containing 5% CO2. Cells at a concentration of 0.50 x 106 were grown in a 25 cm2 flask in 5 ml of culture medium.
(§4) The anti-proliferative activity of the tested pyridazines 11a-r was measured in vitro using the Sulfo-Rhodamine-B stain (SRB) assay. Briefly, Cells were inoculated in 96-well microtiter plate (5X104 cells/ well) for 24 h before treatment with the tested pyridazines to allow attachment of cell to the wall of the plate. Tested pyridazines were dissolved in DMSO at 1 mg/ml immediately before use and diluted to the appropriate volume just before addition to the cell culture. Different concentrations of tested pyridazines and staurosporine were added to the cells (three wells were prepared for each individual dose). Cells were incubated with the pyridazines for 48 h at 37°C and in atmosphere of 5% CO2. After 48 h cells were fixed, washed, and stained for 30 min with 0.4% (w/v) SRB dissolved in 1% acetic acid. Unbound dye was removed by four washes with 1% acetic acid, and attached stain was recovered with Tris-EDTA buffer. Color intensity was measured in an ELISA reader. The relation between percent of surviving fraction and drug concentration is plotted to get the survival curve for each cell line. The concentration required for 50% inhibition of cell viability (IC50) was calculated. […]

[2] = system: MDA-MB-231 cells; assay: SRB anti-proliferative assay, MDA-MB-231; assay type: cell-based; conditions: Homo sapiens, read-out: IC50 MDA-MB-231
From the text: as §1, §2, §3, §4

[3] = biological target: CDK2/CyclinA2 (Homo sapiens, UniProt P24941); assay: In vitro CDK2 kinase assay (CDK2/CyclinA2 Kinase Enzyme System)
From the text: CDK Kinase Inhibitory Activity

[4] = system: MDA-MB-231 cells; assay: Annexin V-FITC/PI apoptosis assay, MDA-MB-231; assay type: cell-based, human; conditions: MDA-MB-231, treated at IC50, 48 h; for Annexin V+ cells, late apoptotic phase (upper right quadrant): control 0.24%; for Annexin V+ cells, early apoptotic phase (lower right quadrant): control 0.56%
Procedure: (§5) Both T-47D and MDA-MB-231 cells were treated with pyridazines 11l and 11m at their IC50s for 48 h. The obtained results have been depicted in Figures 4–6.
(§6) 4. Annexin V-FITC Apoptosis Assay
(§7) Phosphatidylserine externalization was assayed using Annexin V-FITC/PI apoptosis detection kit (BD Biosciences, USA) according to the manufacturer’s instructions. Breast cancer T-47D and MDA-MB-231 cells were cultured to a monolayer then treated with pyridazines 11l and 11m at their IC50 concentration. Briefly, cells were then harvested via trypsinization, and rinsed twice in PBS followed by binding buffer. Moreover, cells were re-suspended in 100 μL of binding buffer with the addition of 1 μL of FITC-Annexin V followed by an incubation period of 30 min at 4 °C. Cells were then rinsed in binding buffer and resuspended in 150 μL of binding buffer with the addition of 1 μL of DAPI (1 μg/μL in PBS). Cells were then analyzed using the flow cytometer BD FACS Canto II and the results were interpreted with FlowJo7.6.4 software (Tree Star, Ashland, OR, USA). […]
(§8) Data are presented as means ± S.D. Individual groups were compared using the two-tailed independent Student’s t-test. Multiple group comparisons were carried out using one-way analysis of variance (ANOVA) followed by the Tukey–Kramer test for post-hoc analysis. Statistical significance was accepted at a level of p < 0.05. All statistical analyses were performed using GraphPad InStat software, version 3.05 (GraphPad Software, Inc., La Jolla, CA, USA). Graphs were sketched using GraphPad Prism software, version 5.00 (GraphPad Software, Inc., La Jolla, CA, USA).

[5] = system: MDA-MB-231 cells; assay: Cell cycle analysis by flow cytometry, MDA-MB-231; assay type: cell-based, human; conditions: MDA-MB-231, treated at IC50, 24 h, vs untreated control
From the text: (§9) In this study, the efficient anti-proliferative activities of target pyridazines 11a-r towards breast cancer cell lines promoted us to explore and get insights into the plausible cellular mechanisms for these small molecules. To this end, we decided to determine if the target pyridazines exerted their cytotoxic activity through alteration in cell cycle progression and/or induction of apoptosis in both breast cancer T-47D and MDA-MB-231 cells. As a reliable tool, the flow cytometric analysis was utilised to inspect the cell cycle distribution after treatment of T-47D and MDA-MB-231 cells with IC50s of pyridazines 11l and 11m; […]
as §2, §3
The anti-proliferative activity of the tested pyridazines 11a-r was measured in vitro using the Sulfo-Rhodamine-B stain (SRB) assay. Briefly, Cells were inoculated in 96-well microtiter plate (5X104 cells/ well) for 24 h before treatment with the tested pyridazines to allow attachment of cell to the wall of the plate. Tested pyridazines were dissolved in DMSO at 1 mg/ml immediately before use and diluted to the appropriate volume just before addition to the cell culture. Different concentrations of tested pyridazines and staurosporine were added to the cells (three wells were prepared for each individual dose). Cells were incubated with the pyridazines for 48 h at 37°C and in atmosphere of 5% CO2. After 48 h cells were fixed, washed, and stained for 30 min with 0.4% (w/v) SRB dissolved in 1% acetic acid. Unbound dye was removed by four washes with 1% acetic acid, and attached stain was recovered with Tris-EDTA buffer. Color intensity was measured in an ELISA reader. The relation between percent of surviving fraction and drug concentration is plotted to get the survival curve for each cell line. The concentration required for 50% inhibition of cell viability (IC50) was calculated.
Breast cancer T-47D and MDA-MB-231 cells were treated with pyridazines 11l and 11m for 24 h (at their IC50 concentration), and then cells were washed twice with ice-cold phosphate buffered saline (PBS). […]

[6] = system: MCF-10A cells; assay: MTT cytotoxicity towards non-tumorigenic breast cells; assay type: cell-based, human; conditions: for IC50: read-out: IC50 MCF-10A
[7] = system: T-47D cells; assay: Cell cycle analysis by flow cytometry, T-47D; assay type: cell-based, human; conditions: treated at IC50, 24 h, vs untreated control
From the text: as §9, §2
as §3, with “medium. […]” for “medium.”
Tested pyridazines were dissolved in […]
The relation between percent of surviving fraction and drug concentration is plotted to get the survival curve for each cell line. The concentration required for 50% inhibition of cell viability (IC50) was calculated.
Breast cancer T-47D and MDA-MB-231 cells were treated with pyridazines 11l and 11m for 24 h (at their IC50 concentration), and then cells were washed twice with ice-cold phosphate buffered saline (PBS). Subsequently, the treated cells were collected by centrifugation, fixed in ice-cold 70% (v/v) ethanol, washed with PBS, re-suspended with 100 μg/mL RNase, stained with 40 μg/mL PI, and analyzed by flow cytometry using FACS Calibur (Becton Dickinson, BD, Franklin Lakes, NJ, USA). The cell cycle distributions were calculated using CellQuest software 5.1 (Becton Dickinson).

[8] = system: T-47D cells; assay: Annexin V-FITC/PI apoptosis assay, T-47D; assay type: cell-based, human; conditions: treated at IC50, 48 h; for Annexin V+ cells, late apoptotic phase (upper right quadrant): control 0.19%; for Annexin V+ cells, early apoptotic phase (lower right quadrant): control […]
Procedure: as §5, §6, §7, §8

[9] = system: human colon cancer HT-29 cell line; parameters: method as in PMID 23307426; conditions: in words; cited from earlier work
[10] = system: VEGFR-2; parameters: method as in PMID 31852269; conditions: in words; cited from earlier work
[11] = SRB assay, breast cancer T-47D, mean ± SD of three experiments
[12] = SRB assay, 48 h, breast cancer MDA-MB-231, mean ± SD of three experiments

Compound: CCCCNc1nnc(C(=O)NC2C3CC4CC(C3)CC2C4)cc1C(F)(F)F (stereo not shown) [11b]
IC50 [1, 11]: 1370 ± 40 nM | melting point: 110 to 111 °C

Compound: O=C(NCC1CCOCC1)c1cc(C(F)(F)F)c(NCC2CC2)nn1 [11l]
IC50 [1, 11]: 1570 ± 50 nM | IC50 [2, 12]: 1300 ± 40 nM | IC50 [3]: 55.6 ± 2.27 nM | Annexin V+ cells, late apoptotic phase (upper right quadrant) [4]: 23.60% | Annexin V+ cells, early apoptotic phase (lower right quadrant) [4]: 3.38% | Increase in cell population of G2/M phase [5]: 4.1 fold | Increase in sub-G1 phase [5]: 18.9 fold | Mean tumour selectivity index (S. I.) ([6]; IC50 for MCF-10A / IC50 average for (T-47D and MDA-MB-231)): 13.7 | IC50 ([6]; MTT assay, non-tumorigenic human breast MCF-10A cells): 19600 ± 380 nM | Increase in sub-G1 phase [7]: 13.8 fold | Rise in cell population of G2/M phase [7]: 2.7 fold | Increase in Annexin V+ apoptotic cells (UR + LR) with respect to untreated control [8]: about 33 fold | Annexin V+ cells, late apoptotic phase (upper right quadrant) [8]: 27.2% | Annexin V+ cells, early apoptotic phase (lower right quadrant) [8]: 6.39%

Compound: O=C(NCC1CCOCC1)c1cc(C(F)(F)F)c(N2CCOCC2)nn1 [11m]
IC50 [1]: 430 ± 10 nM | IC50 ([2]; MDA-MB-231, 48 h): 990 ± 30 nM | Annexin V+ cells, late apoptotic phase (upper right quadrant) [4]: 15.56% | Annexin V+ cells, early apoptotic phase (lower right quadrant) [4]: 8.19% | Increase in cell population of G2/M phase [5]: 3.8 fold | Increase in sub-G1 phase [5]: 15.2 fold | IC50 ([6]; Homo sapiens, MCF-10A): 11400 ± 220 nM | Increase in sub-G1 phase [7]: 9.5 fold | Rise in cell population of G2/M phase [7]: 2.5 fold | Increase in Annexin V+ apoptotic cells (UR + LR) with respect to untreated control [8]: ~21 fold | Annexin V+ cells, late apoptotic phase (upper right quadrant) [8]: 10.34% | Annexin V+ cells, early apoptotic phase (lower right quadrant) [8]: 11.36%

Compound: O=C(NCc1ccccc1C(F)(F)F)c1cc(C(F)(F)F)c(NCCO)nn1 [11n]
IC50 [2, 12]: 2940 ± 90 nM

Compound: CCOC(=O)c1ccc(-c2ccc(N(C)C)nn2)cc1 [III]
Cytotoxic activity towards HT-29 [9]: excellent cytotoxic activity

Compound: COc1ccc(Nc2ccc(NC(=O)Nc3ccc(Cl)c(C(F)(F)F)c3)cc2)nn1 [IV]
IC50 VEGFR-2 [10]: nanomolar range

Next, values leading:

IC50 [2, 12]: 2180 ± 70 nM | melting point: 177 to 178 °C
Compound: O=C(NC1C2CC3CC(C2)CC1C3)c1cc(C(F)(F)F)c(N2CCOCC2)nn1 (stereo not shown) [11d]

IC50 [1, 11]: 2620 ± 80 nM | IC50 [3]: 151 ± 6.16 nM
Compound: O=C(NC1C2CC3CC(C2)CC1C3)c1cc(C(F)(F)F)c(NCc2ccccc2C(F)(F)F)nn1 (stereo not shown) [11e]

IC50 [1, 11]: 1940 ± 60 nM | melting point: 62 to 63 °C
Compound: CC(C)(C)NC(=O)c1cc(C(F)(F)F)c(NC2CCCC2)nn1 [11f]

melting point: 121 to 122 °C
Compound: CC(C)(C)NC(=O)c1cc(C(F)(F)F)c(N2CCOCC2)nn1 [11g]

IC50 [1, 11]: 1600 ± 50 nM | IC50 [2, 12]: 2440 ± 80 nM | IC50 [3]: 43.8 ± 1.79 nM | melting point: 132 to 133 °C
Compound: CC(C)(C)NC(=O)c1cc(C(F)(F)F)c(NCc2ccccc2C(F)(F)F)nn1 [11h]

IC50 [1, 11]: 440 ± 10 nM
Compound: CCCCNC(=O)c1cc(C(F)(F)F)c(N2CCOCC2)nn1 [11i]
